From PubChem BioAssay (NCI)
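Method: 48-hour compound exposure of cells in 96-well plates, five concentrations, linear interpolation of endpoints. Here, GI50 denotes the concentration required for 50% inhibition of growth. TGI: concentration producing complete growth inhibition.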

Tests used:
Assay in all cases: NCI tumour cell line growth inhibition, 48 h
CCRF-CEM leukemia = system: CCRF-CEM leukemia
HOP-92 NSCLC = system: HOP-92 NSCLC
NCI-H23 lung = system: NCI-H23 lung
OVCAR-3 ovarian = system: OVCAR-3 ovarian
OVCAR-4 ovarian = system: OVCAR-4 ovarian
RPMI-8226 leukemia = system: RPMI-8226 leukemia
SF-268 CNS = system: SF-268 CNS
SK-MEL-2 melanoma = system: SK-MEL-2 melanoma
HS 578T breast = system: HS 578T breast
T-47D breast = system: T-47D breast

Structure (SMILES) | TGI (CCRF-CEM leukemia) | TGI (HOP-92 NSCLC) | TGI (NCI-H23 lung) | TGI (OVCAR-3 ovarian) | TGI (OVCAR-4 ovarian) | TGI (RPMI-8226 leukemia) | TGI (SF-268 CNS) | TGI (SK-MEL-2 melanoma) | GI50 (CCRF-CEM leukemia) | GI50 (HOP-92 NSCLC) | GI50 (NCI-H23 lung) | GI50 (OVCAR-3 ovarian) | GI50 (OVCAR-4 ovarian) | GI50 (SF-268 CNS) | GI50 (SK-MEL-2 melanoma) | GI50 (HS 578T breast) | TGI (HS 578T breast) | GI50 (RPMI-8226 leukemia) | GI50 (T-47D breast) | TGI (T-47D breast)
COCCCNC(=O)C1C(=O)N(CCCOC)C(=O)/C1=N\N (stereo unspecified) | > 100 µM | > 100 µM | > 100 µM | > 100 µM | > 100 µM | > 100 µM | > 100 µM | > 100 µM |  |  |  |  |  |  |  |  |  |  |  | 
CC(=O)[CH-]C(C)=O.CC(=O)[CH-]C(C)=O.[CH2-]CCC.[CH2-]CCC.[Sn+4] |  | 1.25 µM | 1.39 µM | 1.96 µM | 2.61 µM |  | 1.2 µM | 1.22 µM | 0.0483 µM | 0.256 µM | 0.315 µM | 0.707 µM | 1.31 µM | 0.291 µM | 0.309 µM |  |  |  |  | 
C=C1C(=O)O[C@H]2C[C@@H]1CC/C(C)=C/CC/C(C)=C/CC[C@H]2C | 48.5 µM |  | 41 µM | 19 µM |  | 13.9 µM | 46.1 µM | > 61.9 µM | 18.8 µM |  | 20.6 µM | 3.94 µM |  | 19.3 µM | 30.9 µM | 27.3 µM | > 78 µM | 5.46 µM | 25 µM | 51.6 µM
c1cc(N(CCn2cccn2)CCn2cccn2)cc(N(CCn2cccn2)CCn2cccn2)c1 | > 100 µM | > 100 µM |  | > 100 µM | > 100 µM | > 100 µM | > 100 µM | > 100 µM |  |  |  |  |  |  |  |  |  |  |  | 
COC(=O)[C@@H](C)C[C@H](Cc1ccccc1)NC(=O)c1csc(CC[C@H](C(C)C)N(C)C(=O)[C@@H](NC(=O)[C@H]2CCCCN2C)C(C)C)n1 | > 33.3 µM | > 26.9 µM | > 33.3 µM |  | > 33.3 µM | > 33.3 µM | > 33.3 µM | > 33.3 µM | 0.295 µM | 0.582 µM | 0.882 µM | 0.108 µM | 0.991 µM | 0.722 µM | 0.149 µM | 0.761 µM | 15.8 µM | 0.135 µM |  | 
CCC[CH2][Sn]1([CH2]CCC)[O]CC(Cc2ccccc2)[O]1 (stereo unspecified) | 4.57 µM | 8.67 µM | 4.05 µM | 7.42 µM | 26 µM | 3.62 µM |  | 3.45 µM | 1.22 µM | 2.9 µM | 1.53 µM | 2.34 µM | 13.2 µM |  | 1.54 µM |  |  | 0.312 µM |  | 
CCC[CH2][Sn]([CH2]CCC)([CH2]CCC)[O]c1ccc(Cl)cc1Cl |  | 0.384 µM | 0.321 µM | 0.259 µM | 0.236 µM |  | 0.301 µM | 0.295 µM |  | 0.0733 µM | 0.109 µM | 0.128 µM | 0.114 µM | 0.128 µM | 0.152 µM |  |  |  | 0.128 µM | 0.307 µM
COc1ccc2c(c1)N1CCc3cc(OC)c(OC)cc3C1C2 (stereo unspecified) | > 100 µM | > 100 µM | > 100 µM |  | > 100 µM |  | > 100 µM | > 100 µM |  |  |  |  |  |  |  |  |  |  |  | 
Cc1sc2nc(-c3ccncc3)c(/C=N/N=C(N)N)n2c1C | > 100 µM |  | > 100 µM | 89.7 µM | > 100 µM | 78.2 µM | 90.1 µM |  | 63 µM |  | 48.4 µM | 26 µM | 67.3 µM | 25.7 µM |  |  |  | 28 µM | 30.7 µM | > 100 µM
C=C1C(=O)O[C@@H]2C[C@@H](C)[C@@H]3C=CC(=O)[C@@]3(C)[C@@H](OC(=O)CC(=O)O[C@H]3[C@@H]4C(=C)C(=O)O[C@@H]4C[C@@H](C)[C@@H]4C=CC(=O)[C@]43C)[C@H]12 | 0.0376 µM | 0.0746 µM | 0.123 µM | 0.159 µM | 0.14 µM | 0.0866 µM | 0.374 µM | 0.224 µM |  |  |  |  |  |  |  |  |  |  |  | 2.73 µM
CN(C)CC(C)(C)C(=O)/C=C/c1ccc(/C=C/C(=O)C(C)(C)CN(C)C)cc1 | 3.78 µM | 2.22 µM | 3.93 µM | 2.59 µM | 2.29 µM | 5.47 µM | 2.86 µM |  |  |  |  |  |  |  |  |  |  |  |  | 
Cc1[nH]c2ccccc2c1C(=O)CC1(O)C(=O)Nc2ccccc21 (stereo unspecified) | > 100 µM | > 100 µM | > 100 µM |  | > 100 µM | > 100 µM | > 100 µM | > 100 µM |  |  |  |  |  |  |  |  |  |  |  | 
COc1ccc(-c2cn[nH]c2-c2cc(OC)c3c(c2)OCO3)cc1 | 21.3 µM | 20.8 µM | 14.7 µM | 0.596 µM | 62.9 µM | 14.5 µM | 31 µM | 17.8 µM | 0.266 µM | 0.417 µM | 0.43 µM | 0.196 µM | 2.15 µM | 0.854 µM | 0.265 µM | 0.311 µM | 26.2 µM | 0.314 µM |  | 
O=C(O)CCCCCCC[C@H]1S[C@H]1CCCCCCO |  |  | > 100 µM | > 100 µM | > 100 µM | > 100 µM | > 100 µM | > 100 µM |  |  |  |  |  |  |  |  |  |  |  | 
